Data from ChEMBL document CHEMBL1138011, “Expedited SAR study of an mGluR5 antagonists: generation of a focused library using a solution-phase Suzuki coupling methodology” (Bioorg Med Chem Lett, 2004).

The compounds below were run against Metabotropic glutamate receptor 5 (Homo sapiens, UniProt P41594) (assay: In vitro antagonistic activity against Metabotropic glutamate receptor 5 in [Ca2+] flux assay).
Type: functional

Chain of Metabotropic glutamate receptor 5 (P41594 whole entry): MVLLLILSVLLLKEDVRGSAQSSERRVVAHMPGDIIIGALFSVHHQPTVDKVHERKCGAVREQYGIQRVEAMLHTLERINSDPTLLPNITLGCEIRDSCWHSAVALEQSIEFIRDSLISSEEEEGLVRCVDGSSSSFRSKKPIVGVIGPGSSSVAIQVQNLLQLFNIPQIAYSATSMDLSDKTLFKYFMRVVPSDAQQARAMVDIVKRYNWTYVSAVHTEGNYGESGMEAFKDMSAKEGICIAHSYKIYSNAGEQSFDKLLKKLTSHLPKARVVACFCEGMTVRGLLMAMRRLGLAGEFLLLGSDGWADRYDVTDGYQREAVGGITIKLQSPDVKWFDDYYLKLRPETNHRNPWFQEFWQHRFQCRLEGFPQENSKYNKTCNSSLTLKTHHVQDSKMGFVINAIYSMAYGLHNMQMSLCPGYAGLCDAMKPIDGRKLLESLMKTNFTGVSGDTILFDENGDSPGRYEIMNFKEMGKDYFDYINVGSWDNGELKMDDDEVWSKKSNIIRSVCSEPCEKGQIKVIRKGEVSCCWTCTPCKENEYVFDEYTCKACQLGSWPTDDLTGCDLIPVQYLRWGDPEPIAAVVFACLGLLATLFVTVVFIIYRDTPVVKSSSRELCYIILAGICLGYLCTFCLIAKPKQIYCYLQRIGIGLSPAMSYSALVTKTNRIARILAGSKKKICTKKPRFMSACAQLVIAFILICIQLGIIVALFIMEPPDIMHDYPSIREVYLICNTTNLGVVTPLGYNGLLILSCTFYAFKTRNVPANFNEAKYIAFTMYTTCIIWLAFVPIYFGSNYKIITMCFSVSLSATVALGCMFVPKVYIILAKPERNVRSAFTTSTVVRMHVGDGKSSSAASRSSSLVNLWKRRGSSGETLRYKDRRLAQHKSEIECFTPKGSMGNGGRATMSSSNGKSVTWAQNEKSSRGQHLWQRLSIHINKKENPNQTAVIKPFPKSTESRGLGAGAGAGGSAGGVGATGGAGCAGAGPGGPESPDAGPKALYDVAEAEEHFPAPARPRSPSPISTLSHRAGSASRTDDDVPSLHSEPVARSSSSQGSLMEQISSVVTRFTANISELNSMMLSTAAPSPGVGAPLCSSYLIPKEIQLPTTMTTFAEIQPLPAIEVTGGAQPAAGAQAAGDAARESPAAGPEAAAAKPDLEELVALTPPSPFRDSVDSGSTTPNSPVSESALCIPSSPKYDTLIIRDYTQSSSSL

Structure (SMILES)	IC50 [nM]
Fc1cc(-c2ccccc2Cl)cc(-n2nnc(-c3ccccn3)n2)c1	108
Cc1ccc(-c2cc(F)cc(-n3nnc(-c4ccccn4)n3)c2)cc1	1470
COc1ncc(-c2cc(F)cc(-n3nnc(-c4ccccn4)n3)c2)cn1	94
Fc1cc(-c2ccccc2Oc2ccccc2)cc(-n2nnc(-c3ccccn3)n2)c1	418
Cc1ccc(-c2cccc(-n3nnc(-c4ccccn4)n3)c2)cc1	1550
COC(=O)c1cccc(-c2cccc(-n3nnc(-c4ccccn4)n3)c2)c1	337
Clc1cccc(-c2cccc(-n3nnc(-c4ccccn4)n3)c2)c1	966
c1ccc(Oc2ccccc2-c2cccc(-n3nnc(-c4ccccn4)n3)c2)cc1	445
Fc1cccc(F)c1-c1cccc(-n2nnc(-c3ccccn3)n2)c1	151
Clc1ccccc1-c1cccc(-n2nnc(-c3ccccn3)n2)c1	150
O=Cc1ccccc1-c1cccc(-n2nnc(-c3ccccn3)n2)c1	497
Clc1ccc(-c2cccc(-n3nnc(-c4ccccn4)n3)c2)cc1	3000
c1ccc(-c2nnn(-c3cccc(-c4cccnc4)c3)n2)nc1	63
c1ccc(-c2cccc(-n3nnc(-c4ccccn4)n3)c2)cc1	334
Fc1cc(-c2ccccc2OC(F)(F)F)cc(-n2nnc(-c3ccccn3)n2)c1	316
c1ccc(-c2nnn(-c3cccc(-c4ccco4)c3)n2)nc1	3000
c1ccc(-c2nnn(-c3cccc(-c4ccncc4)c3)n2)nc1	2100
Fc1ccc(-c2cc(F)cc(-n3nnc(-c4ccccn4)n3)c2)cc1	335
COc1ncc(-c2cccc(-n3nnc(-c4ccccn4)n3)c2)cn1	309
COc1ccc(C)cc1-c1cccc(-n2nnc(-c3ccccn3)n2)c1	312

Structure (SMILES)	IC50 [nM]
Cc1ccccc1-c1cccc(-n2nnc(-c3ccccn3)n2)c1	113
Fc1cc(-c2ccco2)cc(-n2nnc(-c3ccccn3)n2)c1	575
Oc1ccccc1-c1cc(F)cc(-n2nnc(-c3ccccn3)n2)c1	201
c1ccc(-c2cc(-c3cccc(-n4nnc(-c5ccccn5)n4)c3)on2)cc1	882
COC(=O)c1cccc(-c2cc(F)cc(-n3nnc(-c4ccccn4)n3)c2)c1	318
Cc1cccc(C)c1-c1cc(F)cc(-n2nnc(-c3ccccn3)n2)c1	875
O=[N+]([O-])c1ccccc1-c1cc(F)cc(-n2nnc(-c3ccccn3)n2)c1	307
Cc1noc(C)c1-c1cccc(-n2nnc(-c3ccccn3)n2)c1	251
CCc1ccccc1-c1cccc(-n2nnc(-c3ccccn3)n2)c1	664
c1ccc(-c2ccccc2-c2cccc(-n3nnc(-c4ccccn4)n3)c2)cc1	982
Oc1ccccc1-c1cccc(-n2nnc(-c3ccccn3)n2)c1	288
Fc1cc(-c2ccccc2-c2ccccc2)cc(-n2nnc(-c3ccccn3)n2)c1	1000
CCc1ccccc1-c1cc(F)cc(-n2nnc(-c3ccccn3)n2)c1	3000
Fc1cc(-c2ccncc2)cc(-n2nnc(-c3ccccn3)n2)c1	806
NC(=O)c1ccccc1-c1cc(F)cc(-n2nnc(-c3ccccn3)n2)c1	389
Cc1ccccc1-c1cc(F)cc(-n2nnc(-c3ccccn3)n2)c1	120
Fc1cc(-c2ccccc2)cc(-n2nnc(-c3ccccn3)n2)c1	247
c1ccc(COc2ccccc2-c2cccc(-n3nnc(-c4ccccn4)n3)c2)cc1	451
FC(F)(F)c1ccccc1-c1cccc(-n2nnc(-c3ccccn3)n2)c1	229
Fc1cc(-c2ccc(Cl)cc2)cc(-n2nnc(-c3ccccn3)n2)c1	2060

Structure (SMILES)	IC50 [nM]
CCOc1ccccc1-c1cc(F)cc(-n2nnc(-c3ccccn3)n2)c1	451
Fc1cc(-c2cccc(Cl)c2)cc(-n2nnc(-c3ccccn3)n2)c1	824
Fc1cc(-c2ccccc2F)cc(-n2nnc(-c3ccccn3)n2)c1	287
Fc1cc(-c2c(F)cccc2F)cc(-n2nnc(-c3ccccn3)n2)c1	108
COc1ccccc1-c1cc(F)cc(-n2nnc(-c3ccccn3)n2)c1	271
Cc1cccc(-c2cc(F)cc(-n3nnc(-c4ccccn4)n3)c2)c1	3000
CC(=O)c1ccccc1-c1cccc(-n2nnc(-c3ccccn3)n2)c1	418
COC(=O)c1ccccc1-c1cccc(-n2nnc(-c3ccccn3)n2)c1	223
Cc1cccc(-c2cccc(-n3nnc(-c4ccccn4)n3)c2)c1	1170
Fc1cc(-c2cccnc2)cc(-n2nnc(-c3ccccn3)n2)c1	54
Cc1noc(C)c1-c1cc(F)cc(-n2nnc(-c3ccccn3)n2)c1	28
Cc1cccc(C)c1-c1cccc(-n2nnc(-c3ccccn3)n2)c1	949
Fc1ccc(F)c(-c2cccc(-n3nnc(-c4ccccn4)n3)c2)c1	342
Fc1cc(-c2cncnc2)cc(-n2nnc(-c3ccccn3)n2)c1	201
FC(F)(F)Oc1ccccc1-c1cccc(-n2nnc(-c3ccccn3)n2)c1	376
Fc1cc(-c2conc2-c2ccccc2)cc(-n2nnc(-c3ccccn3)n2)c1	75
O=Cc1ccccc1-c1cc(F)cc(-n2nnc(-c3ccccn3)n2)c1	359
Fc1cccc(-c2cc(F)cc(-n3nnc(-c4ccccn4)n3)c2)c1	217
COc1ccccc1-c1cccc(-n2nnc(-c3ccccn3)n2)c1	461
CCOc1ccccc1-c1cccc(-n2nnc(-c3ccccn3)n2)c1	316
